Measured values as given in the OPERA property sets (Mansouri et al. 2018).

Structure (SMILES)	logP
c1ccc2c(c1)ccc1ccsc12	4.55
c1cc2ccc3cccc4sc(c1)c2c34	4.95
c1ccc2c(c1)ccc1sc3ccccc3c12	5.19
O=S1C=Cc2ccccc21 (stereo not given)	1.01

Further lines, results first:

logP	Structure (SMILES)
4.41	c1ccc2c(c1)ccc1sccc12
4.5	c1ccc2cc3sccc3cc2c1
3.57	Cc1cccc2sccc12
3.71	Cc1cc2ccccc2s1
3.85	Cc1cccc2ccsc12
5.35	c1ccc2c(c1)ccc1c3ccsc3ccc21
